A word on the EC50: it is the midpoint of the concentration-response curve.

Series [1] in a line: Liver Microsome Stability Assay (mouse). The settings on record: mouse liver microsomes, with NADPH, 1.0 uM compound. In general terms: Microsomes from liver hold many membrane-bound enzymes, among them those of drug oxidation.
Description: (§1) Stability of a compound was assessed in the presence of liver microsomes from various sources—mouse, rat, monkey and human liver microsomes. 1.0 uM compound, 0.4% DMSO in 0.1 M Potassium Phosphate with 1.0 mg/mL liver microsomes, were incubated at 37° C. with or without 1 mM NADPH. The samples were quenched at 0, and 30 minutes.
Series [2] deals with multiple myeloma cell line NCI-H929. The experiment in a line: H929 Cell Viability Assay. The class given is cell-based, human. The conditions noted are these: Homo sapiens, NCI-H929, 48 h, NCI-H929 cells, Celltiter-Glo. A digest of the protocol:
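NCI-H929 cells, resuspended in RPMI 1640 with 10% FBS and 2 mM glutamine, were treated with compound dilutions in DMSO/media and incubated 48 hours at 37° C, 5% CO2. Viability was read by CellTiter-Glo luminescence. Compounds drawn without stereochemistry were tested as stereoisomer mixtures.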
On the technique in general: ATP-based viability assays read luminescence as a measure of living cells.

A short description of series [3]: Liver Microsome Stability Assay (rat). The conditions noted are these: rat liver microsomes, with NADPH, 1.0 uM compound.
Description: as §1
Series [4] is described as follows: Liver Microsome Stability Assay (human). The settings on record: human liver microsomes, with NADPH, 1.0 uM compound.
Description: as §1
Series [5] deals with HER3-ss+4aa/Gaussia Luciferase. The experiment in a line: Dox-Induced Her3-ss-Gluc Assay. The class given is cell-based. The conditions noted are these: 24 hr Dox induction; 293FRT/TO cells; read-out: 24 hr Dox Inducible Her3(ss + 4)Gluc 293FRT/TO: Mean IC50. Summed up:
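Stable Flp-In 293 T-REx line expressing Gaussia luciferase fused to the HER3 signal sequence plus 4 amino acids under tetracycline-regulated (T-REx) control. Cells plated the day before, then treated with compound dilutions in DMSO/media containing doxycycline and incubated at 37° C., 5% CO2.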

Series [6] in a line: Liver Microsome Stability Assay (monkey). The conditions noted are these: monkey liver microsomes, with NADPH, 1.0 uM compound.
Description: as §1
Series [7] has as its system IL-2-FL/Gaussia Luciferase. The series is described as follows: Dox Induced IL2-FL-Gluc Assay. The class given is cell-based. The conditions noted are these: for IC50: 24 hr Dox induction, 293FRT/TO cells, read-out: 24 hr Dox Inducible IL2FLGluc 293FRT/TO: Mean IC50; for 24 hr Dox Inducible IL2FLGluc 293FRT/TO: IL2/PD1: ratio of IL2FLGluc IC50 to PD1ssGluc IC50. A digest of the protocol: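 Flp-In 293 T-REx cells stably carrying doxycycline-inducible full-length IL-2 (aa 1-153) fused at its C-terminus to Gaussia luciferase, selected with hygromycin and blasticidin. Cells were plated the day before, then treated with compounds in DMSO/media containing doxycycline at 37° C, 5% CO2.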

Series [8] has as its system TNFα-FL/Gaussia Luciferase. The experiment in a line: Dox Induced TNFα-FL-Gluc Assay. It is filed as cell-based. The settings on record: for IC50: 24 hr Dox induction, 293FRT/TO cells, read-out: 24 hr Dox Inducible TNFaFLGluc 293FRT/TO: Mean IC50; for 24 hr Dox Inducible TNFaFLGluc 293FRT/TO: TNF/PD1: ratio of TNFaFLGluc IC50 to PD1ssGluc IC50. Summed up:
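Flp-In 293 T-REx cells stably expressing full-length TNFα (aa 1-233) fused at its C-terminus to Gaussia luciferase under tetracycline-regulated control were plated the day before assay. Compound dilutions in DMSO/media containing doxycycline were added and incubated at 37 °C, 5% CO2. Unspecified stereochemistry denotes stereoisomer mixtures.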

Series [9] has as its system multiple myeloma cell line U266B1. The series is described as follows: U266 Cell Viability Assay. It is filed as cell-based, human. The settings on record: Homo sapiens, U-266, 48 h, U266B1 cells, Celltiter-Glo. Summed up:
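Cells grown in RPMI 1640 with 10% FBS, 2 mM glutamine and penicillin/streptomycin were exposed to compound dilutions in DMSO/media for 48 hours at 37° C., 5% CO2. Viability was read by CellTiter-Glo luminescence. Undefined stereocentres mean data for stereoisomer mixtures.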

The test system of series [10] is PD1-ss+10aa/Gaussia Luciferase. The experiment in a line: Dox-Induced PD1-ss-Gluc Assay. It is filed as cell-based. The conditions noted are these: 24 hr Dox induction; 293FRT/TO cells; read-out: 24 hr Dox Inducible PD1ssGluc 293FRT/TO: Mean IC50. Summed up:
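Flp-In 293 T-REx, stable line; Tet-regulated PD1-ss+10aa fused to Gaussia luciferase; plated day prior; cpd + doxycycline in DMSO/media; 37 °C, 5% CO2.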

Consider `CN1CCOC(/C=C/c2csc(NC(=O)c3cccn3Cc3ccncc3)n2)C1` (stereo not drawn) [Compound B6, (E)-N-(4-(2-(4-methylmorpholin-2-yl)vinyl)thiazol-2-yl)-1-(pyridin-4-ylmethyl)-1H-pyrrole-2-carboxamide], for which the “Liver Microsome Stability (Multiple Species): Mouse - % Remaining after 30 min w/NADPH” value in [1] worked out at 10%. The concentration giving a half-maximal response (EC50) in series [2] and in series [9] was over 25 µM throughout. For the same molecule, the “Liver Microsome Stability (Multiple Species): Rat - % Remaining after 30 min w/NADPH” value in series [3] stood at 13.2%. For the same molecule, in series [4], the “Liver Microsome Stability (Multiple Species): Human - % Remaining after 30 min w/NADPH” value is listed as 5.85%. The IC50 in series [5] was over 25 µM; in [7], over 25 µM; in series [8] it was over 25 µM; in series [10], 4.4 µM. Further, in [6], the “Liver Microsome Stability (Multiple Species): Monkey - % Remaining after 30 min w/NADPH” value amounted to 6.93%. Further, the “24 hr Dox Inducible IL2FLGluc 293FRT/TO: IL2/PD1” value in series [7] is given as 5.7. The “24 hr Dox Inducible TNFaFLGluc 293FRT/TO: TNF/PD1” value in series [8] is recorded as over 5.68.

As to `O=C(Nc1nc(/C=C/C2CCc3ccccc3N2)cs1)c1cccn1Cc1ccncc1` (stereo not drawn) [Compound B7, (E)-1-(pyridin-4-ylmethyl)-N-(4-(2-(1,2,3,4-tetrahydroquinolin-2-yl)vinyl)thiazol-2-yl)-1H-pyrrole-2-carboxamide], in [1], the “Liver Microsome Stability (Multiple Species): Mouse - % Remaining after 30 min w/NADPH” value worked out at 12.3%. In addition, the EC50 in series [2] was 21.9 µM; in [9], 21.4 µM. Besides, the “Liver Microsome Stability (Multiple Species): Rat - % Remaining after 30 min w/NADPH” value in [3] is reported as 2.33%. Moreover, the “Liver Microsome Stability (Multiple Species): Human - % Remaining after 30 min w/NADPH” value in [4] amounted to 1.32%. For the same molecule, the IC50 turned out to be 0.8 µM in series [5], 1.27 µM in series [7], 7.87 µM in series [8] and 0.33 µM in series [10]. Moreover, in [6], the “Liver Microsome Stability (Multiple Species): Monkey - % Remaining after 30 min w/NADPH” value came to 0.74%. Besides, the “24 hr Dox Inducible IL2FLGluc 293FRT/TO: IL2/PD1” value in series [7] came out at 3.8. Further, the “24 hr Dox Inducible TNFaFLGluc 293FRT/TO: TNF/PD1” value in [8] came to 23.9.

For `CN1c2ccccc2CCC1/C=C/c1csc(NC(=O)c2cccn2Cc2ccncc2)n1` (stereo not drawn) [Compound B8, (E)-N-(4-(2-(1-methyl-1,2,3,4-tetrahydroquinolin-2-yl)vinyl)thiazol-2-yl)-1-(pyridin-4-ylmethyl)-1H-pyrrole-2-carboxamide], the “Liver Microsome Stability (Multiple Species): Mouse - % Remaining after 30 min w/NADPH” value in series [1] turned out to be 5.24%. Besides, the EC50 is 24.2 µM in series [2] and over 25 µM in series [9]. In addition, the “Liver Microsome Stability (Multiple Species): Rat - % Remaining after 30 min w/NADPH” value in series [3] turned out to be 7.12%. In addition, the “Liver Microsome Stability (Multiple Species): Human - % Remaining after 30 min w/NADPH” value in series [4] amounted to 0.69%. In addition, the IC50 in series [5] was determined as 0.61 µM; in [7] it was 0.875 µM; in series [8], 3.53 µM; in series [10] it was 0.26 µM. Also, the “Liver Microsome Stability (Multiple Species): Monkey - % Remaining after 30 min w/NADPH” value in series [6] was 0.47%. In addition, the “24 hr Dox Inducible IL2FLGluc 293FRT/TO: IL2/PD1” value in series [7] turned out to be 3.4. Besides, the “24 hr Dox Inducible TNFaFLGluc 293FRT/TO: TNF/PD1” value in [8] worked out at 13.6.

`O=C(Nc1nc(/C=C/C2CN(S(=O)(=O)c3ccccc3)CCO2)cs1)c1cccn1Cc1ccncc1` (stereo not drawn) [Compound B9, (E)-N-(4-(2-(4-(phenylsulfonyl)morpholin-2-yl)vinyl)thiazol-2-yl)-1-(pyridin-4-ylmethyl)-1H-pyrrole-2-carboxamide]: the “Liver Microsome Stability (Multiple Species): Mouse - % Remaining after 30 min w/NADPH” value in series [1] came to 0.31%. The EC50 is 15.2 µM in series [2] and 10.4 µM in series [9]. Also, in series [3], the “Liver Microsome Stability (Multiple Species): Rat - % Remaining after 30 min w/NADPH” value is 3.44%. Further, in series [4], the “Liver Microsome Stability (Multiple Species): Human - % Remaining after 30 min w/NADPH” value was 0.41%. Moreover, the IC50 was 1.61 µM in [5], 1.85 µM in series [7], over 25 µM in series [8] and 0.91 µM in series [10]. In [6], the “Liver Microsome Stability (Multiple Species): Monkey - % Remaining after 30 min w/NADPH” value is 0.17%. In addition, the “24 hr Dox Inducible IL2FLGluc 293FRT/TO: IL2/PD1” value in series [7] was found to be 2. Besides, the “24 hr Dox Inducible TNFaFLGluc 293FRT/TO: TNF/PD1” value in series [8] was over 27.5.

The values above are taken from patent publication US20230286973A1, “PROTEIN SECRETION INHIBITORS” (KEZAR LIFE SCIENCES, priority 2020, published 2023).
